Experimental data published in ChEMBL document CHEMBL5244237, “Recent developments of small molecules targeting RNA m6A modulators” (Eur J Med Chem, 2020).

What was measured:
[1] = molecular target: T1, Alpha-ketoglutarate-dependent dioxygenase FTO (Homo sapiens, UniProt Q9C0B1); test: Inhibition of FTO (unknown origin) mediated m6A methylation by HPLC analysis
MONO-MAC-6 = test: Antiproliferative activity against human MONO-MAC-6 cells; format: functional, cell-based
[2] = molecular target: T1, Alpha-ketoglutarate-dependent dioxygenase FTO; test: Inhibition of full length human FTO expressed in Escherichia coli BL21(DE3) rosetta by HPLC analysis
[3] = molecular target: T1, Alpha-ketoglutarate-dependent dioxygenase FTO; test: Displacement of dm6A-containing ssDNA from truncated N-terminal his-tagged human FTO (31 residues) mediated demethylation activity expressed in Escherichia coli BL21(DE3) using ssDNA (5'-ATTGTCA(dm6A)CAGCAGA-FAM-3') as substrate by fluorescence polarization assay
[4] = molecular target: T1, Alpha-ketoglutarate-dependent dioxygenase FTO
Description: Inhibition of FTO (unknown origin) (31 to 505 residues) by LC/MS analysis

T1 sequence (Q9C0B1 whole entry): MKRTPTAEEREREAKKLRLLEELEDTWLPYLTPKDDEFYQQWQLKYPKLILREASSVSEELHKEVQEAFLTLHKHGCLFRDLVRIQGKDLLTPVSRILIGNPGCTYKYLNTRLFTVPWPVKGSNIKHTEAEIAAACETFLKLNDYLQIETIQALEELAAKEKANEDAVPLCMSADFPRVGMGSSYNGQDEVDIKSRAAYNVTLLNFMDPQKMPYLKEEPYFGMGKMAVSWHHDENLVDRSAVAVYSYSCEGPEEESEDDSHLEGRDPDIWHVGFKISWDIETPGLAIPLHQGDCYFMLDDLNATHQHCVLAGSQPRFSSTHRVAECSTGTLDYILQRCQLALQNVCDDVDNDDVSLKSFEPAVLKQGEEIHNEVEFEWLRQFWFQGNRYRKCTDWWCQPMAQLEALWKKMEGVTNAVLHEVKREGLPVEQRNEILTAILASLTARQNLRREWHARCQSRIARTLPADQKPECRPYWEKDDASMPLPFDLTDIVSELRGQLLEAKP

Molecule `Cc1noc(C)c1-c1cc(Cl)c(Nc2ccccc2C(=O)NO)c(Cl)c1` has an IC50 [1] of 2.6 µM and an IC50 (MONO-MAC-6) of 0.8 µM.

Work on `O=C(O)c1ccnc(C(=O)NS(=O)(=O)c2ccc(C(F)(F)F)cc2)c1` yielded an IC50 [2] of 2.6 µM.

Work on `Cc1ccc(Cl)c(Nc2ccccc2C(=O)O)c1Cl` [MECLOFENAMIC ACID] yielded an IC50 [3] of 17.4 µM.

Work on `C[C@@H]1C[C@H]2O[C@@H]2/C=C\C=C\C(=O)Cc2c(Cl)c(O)cc(O)c2C(=O)O1` [RADICICOL] yielded an IC50 [4] of 16 µM.
